Consider 53 compounds from patent US9745291B2, “PRMT5 inhibitors containing a dihydro- or tetrahydroisoquinoline and uses thereof” (Epizyme, Inc., priority 2012, dated 2017).

The IC50 is the concentration that inhibits the measured activity by half.

For this experiment, the target named is PRMT5/MEP50 (Homo sapiens (Human), UniProt O14744). The experiment is described as follows: PRMT5 Biochemical Assay (PRMT5/MEP50 enzyme assay on peptide substrate, 3H-SAM Flashplate). Particulars: PRMT5 biochemical assay; read-out: Biochemical IC50. From the text: S-adenosylmethionine (SAM), S-adenosylhomocysteine (SAH), bicine, KCl, Tween20, dimethylsulfoxide (DMSO), bovine skin gelatin (BSG), and Tris(2-carboxyethyl)phosphine hydrochloride solution (TCEP) were purchased from Sigma-Aldrich at the highest level of purity possible. ^3H-SAM was purchase from American Radiolabeled Chemicals with a specific activity of 80 Ci/mmol. 384-well streptavidin Flashplates were purchased from PerkinElmer.
Chain of PRMT5/MEP50 (O14744 other isoform, or with tags, fused parts or gaps): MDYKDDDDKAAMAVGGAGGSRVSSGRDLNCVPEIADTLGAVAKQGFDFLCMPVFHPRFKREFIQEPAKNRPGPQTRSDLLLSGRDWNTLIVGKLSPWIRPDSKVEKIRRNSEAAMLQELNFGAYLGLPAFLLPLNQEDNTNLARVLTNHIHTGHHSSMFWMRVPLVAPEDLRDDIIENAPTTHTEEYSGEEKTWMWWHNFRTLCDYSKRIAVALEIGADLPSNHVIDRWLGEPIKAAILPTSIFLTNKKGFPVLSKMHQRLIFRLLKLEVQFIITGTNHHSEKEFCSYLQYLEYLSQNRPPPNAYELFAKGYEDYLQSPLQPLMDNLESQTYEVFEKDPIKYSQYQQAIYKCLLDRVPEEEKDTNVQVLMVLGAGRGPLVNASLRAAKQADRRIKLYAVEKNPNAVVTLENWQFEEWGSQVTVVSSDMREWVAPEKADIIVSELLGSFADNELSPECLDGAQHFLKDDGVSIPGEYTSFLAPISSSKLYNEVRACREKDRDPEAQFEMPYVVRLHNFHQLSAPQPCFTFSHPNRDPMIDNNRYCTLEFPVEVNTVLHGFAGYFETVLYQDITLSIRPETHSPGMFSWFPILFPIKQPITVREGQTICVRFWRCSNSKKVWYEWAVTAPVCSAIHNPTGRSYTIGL
Chain of PRMT5/MEP50 (Q9BQA1 other isoform, or with tags, fused parts or gaps partner): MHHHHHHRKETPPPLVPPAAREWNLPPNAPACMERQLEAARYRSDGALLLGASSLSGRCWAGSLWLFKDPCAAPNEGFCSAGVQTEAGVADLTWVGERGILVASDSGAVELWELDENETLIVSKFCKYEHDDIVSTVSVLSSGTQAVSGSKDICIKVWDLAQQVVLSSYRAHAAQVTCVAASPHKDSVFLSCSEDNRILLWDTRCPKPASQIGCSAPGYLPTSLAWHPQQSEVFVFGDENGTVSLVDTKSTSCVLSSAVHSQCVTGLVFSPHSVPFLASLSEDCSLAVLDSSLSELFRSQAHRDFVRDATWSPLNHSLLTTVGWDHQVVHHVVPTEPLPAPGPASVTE
Peptide representative of human histone H4 residues 1-15 was synthesized with a C-terminal linker-affinity tag motif and a C-terminal amide cap by 21st Century Biochemicals. […] The sequence was Ac-[…][K-Biot]-amide (SEQ ID NO.:3).
Full-length human MEP50 (NM_024102) clone was amplified from a human testis cDNA library incorporating a 5′ sequence encoding a 6-histidine tag (MHHHHHH)(SEQ ID NO.:5) fused directly to Arg 2 of MEP50. The amplified genes were sublconed into pENTR/D/TEV (Life Technologies) and subsequently transferred by Gateway™ attL×attR recombination to pDEST8 baculvirus expression vector (Life Technologies).
Recombinant baculovirus and Baculovirus-Infected Insect Cells (BIIC) were generated according to Bac-to-Bac kit instructions (Life Technologies) and Wasilko, 2006, respectively. Protein over-expression was accomplished by infecting exponentially growing Spodoptera frugiperda (SF9) cell culture at 1.2×10^6 cell/ml with a 5000 fold dilution of BIIC stock. Infections were carried out at 27° C. for 72 hours, harvested by centrifugation, and stored at −80° C. for purification.
Flag-PRMT5/6His-MeP50 was eluted with 300 mM Imidazole in the same buffer. […] Reference: Wasilko, D. J. and S. E. Lee: “TIPS: titerless infected-cells preservation and scale-up” Bioprocess J., 5 (2006), pp. 29-32.
General Procedure for PRMT5/MEP50 Enzyme Assays on Peptide Substrates.
The assays were all performed in a buffer consisting of 20 mM Bicine (pH=7.6), 1 mM TCEP, 0.005% BSG, and 0.002% Tween20, prepared on the day of use. Compounds in 100% DMSO (1 ul) were spotted into a polypropylene 384-well V-bottom plates (Greiner) using a Platemate Plus outfitted with a 384-channel head (Thermo Scientific). DMSO (1 ul) was added to Columns 11, 12, 23, 24, rows A-H for the maximum signal control and 1 ul of SAH, a known product and inhibitor of PRMT5/MEP50, was added to columns 11, 12, 23, 24, rows I-P for the minimum signal control. A cocktail (40 ul) containing the PRMT5/MEP50 enzyme and the peptide was added by Multidrop Combi (Thermo-Fisher). The compounds were allowed to incubate with PRMT5/MEP50 for 30 min at 25 degrees Celsius, then a cocktail (10 ul) containing ^3H-SAM was added to initiate the reaction (final volume=51 ul).
Turning to `CNS(=O)(=O)c1ccccc1OCC(=O)NCC(O)CN1CCc2ccccc2C1` (centres unmarked) [Compound 123], the IC50 was under 100 nM.
On to `O=C(COc1ccccc1OCCN1CCOCC1)NC[C@H](O)CN1CCc2ccccc2C1` [Compound 86], for which the IC50 is under 100 nM.
With `O=C(NC[C@H](O)CN1CCc2ccccc2C1)C1CNc2ccccc21` (some centres unmarked) [Compound 177] the figure was 101 to 1000 nM.
With `CS(=O)(=O)Nc1ncccc1OCC(=O)NCC(O)CN1CCc2ccccc2C1` (centres unmarked) [Compound 139] the figure was over 10000 nM.
Next, `O=C(COc1ccccc1-c1cc[nH]n1)NC[C@@H](O)CN1CCc2ccccc2C1` [Compound 67]: under 100 nM.
Regarding `O=C(COc1ccccc1[C@H]1CCCCN1)NC[C@@H](O)CN1CCc2ccccc2C1` [Compound 235], the IC50 is 1000 to 10000 nM.
Next, `Cn1cnc(-c2ccccc2OCC(=O)NCC(O)CN2CCc3ccccc3C2)c1` (centres unmarked) [Compound 153]: under 100 nM; `O=C(COc1cccc(C(=O)NCCN2CCOCC2)c1)NC[C@@H](O)CN1CCc2ccccc2C1` [Compound 188]: 1000 to 10000 nM; `CN1CCOc2cccc(OCC(=O)NCC(O)CN3CCc4ccccc4C3)c21` (centres unmarked) [Compound 81]: under 100 nM.
For `Cn1ccnc1-c1cccc(OCC(=O)NC[C@@H](O)CN2CCc3ccccc3C2)c1` [Compound 187], the IC50 lay in the range of 1000 to 10000 nM.
On to `O=C(COCCN1CCOCC1)NCC(O)CN1CCc2ccccc2C1` (centres unmarked) [Compound 167], for which the IC50 is 1000 to 10000 nM.
With `O=C(COc1ccccc1N1CCOCC1)NCC(O)CN1CCc2ccccc2C1` (centres unmarked) [Compound 49, N-(3-(3,4-dihydroisoquinolin-2(1H)-yl)-2-hydroxypropyl)-2-(2-morpholinophenoxy)acetamide] the figure was under 100 nM; with `O=C(COc1cncc(C(=O)N2CCOCC2)c1)NCC(O)CN1CCc2ccccc2C1` (centres unmarked) [Compound 161], 101 to 1000 nM; with `O=C(COc1ccccc1-c1cc[nH]n1)NCC(O)CN1CCc2ccccc2C1` (centres unmarked) [Compound 50, 2-(2-(1H-pyrazol-3-yl)phenoxy)-N-(3-(3,4-dihydroisoquinolin-2(1H)-yl)-2-hydroxypropyl)acetamide], under 100 nM.
With `O=C(Cc1c[nH]c2ccccc12)NC[C@H](O)CN1CCc2ccccc2C1` [Compound 182] the figure was 101 to 1000 nM; with `COc1cccc(OCC(=O)NCC(O)CN2CCc3ccccc3C2)c1` (centres unmarked) [Compound 20, N-(3-(3,4-dihydroisoquinolin-2(1H)-yl)-2-hydroxypropyl)-2-(3-methoxyphenoxy)acetamide], under 100 nM; with `CN(C)c1cccc(OCC(=O)NCC(O)CN2CCc3ccccc3C2)c1` (centres unmarked) [Compound 27], under 100 nM.
Next, `CN(C)c1cccc(OCC(=O)NCC(O)CN2CCc3ccccc3C2)c1S(N)(=O)=O` (centres unmarked) [Compound 169]: under 100 nM.
As for `Cn1ncc2ccc(OCC(=O)NCC(O)CN3CCc4ccccc4C3)cc21` (centres unmarked) [Compound 23, N-(3-(3,4-dihydroisoquinolin-2(1H)-yl)-2-hydroxypropyl)-2-((1-methyl-1H-indazol-6-yl)oxy)acetamide], the IC50 was under 100 nM.
With `CN(c1ccccc1OCC(=O)NCC(O)CN1CCc2ccccc2C1)S(C)(=O)=O` (centres unmarked) [Compound 155], the IC50 is under 100 nM.
With `O=C(CCc1nc2ccccc2s1)NC[C@@H](O)CN1CCc2ccccc2C1` [Compound 193] the figure was 1000 to 10000 nM.
With `O=C(COc1cccc(C(=O)NCCc2c[nH]cn2)c1)NC[C@@H](O)CN1CCc2ccccc2C1` [Compound 189] the figure was 101 to 1000 nM.
For the compound `O=C(Cc1ccc2c(c1)OCO2)NC[C@H](O)CN1CCc2ccccc2C1` [Compound 174], the IC50 lay within 101 to 1000 nM.
Next, `CS(=O)(=O)c1ccccc1OCC(=O)NCC(O)CN1CCc2ccccc2C1` (centres unmarked) [Compound 37, N-(3-(3,4-dihydroisoquinolin-2(1H)-yl)-2-hydroxypropyl)-2-(2-(methylsulfonyl)phenoxy)acetamide]: under 100 nM; `O=C(COC1CCCOC1)NCC(O)CN1CCc2ccccc2C1` (centres unmarked) [Compound 166]: 1000 to 10000 nM; `Cc1cn(C)c2cccc(OCC(=O)NC[C@H](O)CN3CCc4ccccc4C3)c12` [Compound 163]: under 100 nM.
Next, `C[C@@H](Oc1cccc2cccnc12)C(=O)NC[C@H](O)CN1CCc2ccccc2C1` [Compound 73, (R)—N—((S)-3-(3,4-dihydroisoquinolin-2(1H)-yl)-2-hydroxypropyl)-2-(quinolin-8-yloxy)propanamide]: under 100 nM; `O=C(COc1ccccc1-c1cc[nH]n1)NC[C@H](O)CN1CCc2ccccc2C1` [Compound 68]: under 100 nM; `Cn1ncc2ccc(OCC(=O)NC[C@H](O)CN3CCc4ccccc4C3)cc21` [Compound 159]: under 100 nM.
With `CC(=O)Nc1ncccc1OCC(=O)NCC(O)CN1CCc2ccccc2C1` (centres unmarked) [Compound 147] the figure was over 10000 nM; with `CC(=O)Nc1cncc(OCC(=O)NCC(O)CN2CCc3ccccc3C2)c1` (centres unmarked) [Compound 148], over 10000 nM.
As for `O=C(COc1cccc2cnncc12)NCC(O)CN1CCc2ccccc2C1` (centres unmarked) [Compound 154], the IC50 was in the range of 1000 to 10000 nM.
For the compound `CC(NC(=O)COc1ccccc1S(N)(=O)=O)C(O)CN1CCc2ccccc2C1` (centres unmarked) [Compound 170], the IC50 was under 100 nM.
With `CN1CCN(c2ccccc2OCC(=O)NC[C@H](O)CN2CCc3ccccc3C2)CC1` [Compound 84] the figure was under 100 nM; with `O=C(COc1cccc2c1CCCN2Cc1ccccc1)NCC(O)CN1CCc2ccccc2C1` (centres unmarked) [Compound 4], under 100 nM.
For the compound `O=C(COc1cccc2nccnc12)NCC(O)CN1CCc2ccccc2C1` (centres unmarked) [Compound 92], the IC50 is under 100 nM.
With `CC(O)(C(=O)NCC(O)CN1CCc2ccccc2C1)c1ccccc1` (centres unmarked) [Compound 173] the figure was 1000 to 10000 nM; with `O=C(COc1ccc2c(cnn2C2CCNC2)c1)NCC(O)CN1CCc2ccccc2C1` (centres unmarked) [Compound 95], under 100 nM; with `CN(C)CCN(C)S(=O)(=O)c1ccccc1OCC(=O)NC[C@@H](O)CN1CCc2ccccc2C1` [Compound 191], under 100 nM.
With `Cn1c(CCC(=O)NC[C@@H](O)CN2CCc3ccccc3C2)nc2ccccc21` [Compound 268] the figure was 1000 to 10000 nM; with `O=C(COc1ccccc1N1CCNCC1)NC[C@@H](O)CN1CCc2ccccc2C1` [Compound 270], 1000 to 10000 nM.
Regarding `CC(Oc1ccccc1NS(C)(=O)=O)C(=O)NCC(O)CN1CCc2ccccc2C1` (centres unmarked) [Compound 157], the 50% inhibitory concentration (IC50) was in the range of 1000 to 10000 nM.
Take `C[C@@H](Oc1cccc2cccnc12)C(=O)NC[C@@H](O)CN1CCc2ccccc2C1` [Compound 74]: the IC50 was under 100 nM.
Turning to `CN1C(=O)COc2cccc(OCC(=O)NCC(O)CN3CCc4ccccc4C3)c21` (centres unmarked) [Compound 80, N-(3-(3,4-Dihydroisoquinolin-2(1H)-yl)-2-hydroxypropyl)-2-(4-methyl-3-oxo-3,4-dihydro-2H-benzo[b][1,4]oxazin-5-yloxy)acetamide], the half-maximal inhibitory concentration (IC50) is under 100 nM.
With `CC(Oc1ccccc1)C(=O)NCC(O)CN1CCc2ccccc2C1` (centres unmarked) [Compound 19, N-(3-(3,4-dihydroisoquinolin-2(1H)-yl)-2-hydroxypropyl)-2-phenoxypropanamide] the figure was under 100 nM; with `O=C(COc1ccccc1S(=O)(=O)N1CCCC1)NCC(O)CN1CCc2ccccc2C1` (centres unmarked) [Compound 110], under 100 nM.
`CN1CCC(n2ncc3cc(OCC(=O)NCC(O)CN4CCc5ccccc5C4)ccc32)C1` (centres unmarked) [Compound 96]: the IC50 is under 100 nM.
With `CS(=O)(=O)Nc1cccc(OCC(=O)NCC(O)CN2CCc3ccccc3C2)c1` (centres unmarked) [Compound 28, N-(3-(3,4-dihydroisoquinolin-2(1H)-yl)-2-hydroxypropyl)-2-(3-(methylsulfonamido)phenoxy)acetamide] the figure was under 100 nM.
With `CC(=O)N1CCc2c(cccc2OCC(=O)NCC(O)CN2CCc3ccccc3C2)C1` (centres unmarked) [Compound 101] the figure was under 100 nM.
With `O=C(NCC(O)CN1CCc2ccccc2C1)C(O)c1ccccc1` (centres unmarked) [Compound 165] the figure was 101 to 1000 nM; with `O=C(COc1cccc(NC2CCOCC2)c1)NCC(O)CN1CCc2ccccc2C1` (centres unmarked) [Compound 93], under 100 nM.
Take `O=C(NC[C@H](O)CN1CCc2ccccc2C1)C1CCCc2ccccc21` (some centres unmarked) [Compound 180]: the IC50 was 1000 to 10000 nM.
Next, `CN1CCN(c2cccc(OCC(=O)NC[C@@H](O)CN3CCc4ccccc4C3)c2)CC1` [Compound 190]: under 100 nM.
